For test [1], the system named is A375 cells. Put plainly: CCK-8 antiproliferative assay, A375. Type of test: cell-based. Conditions: Homo sapiens, A-375; cell viability (CCK-8), 48 h. As to the method:
To evaluate the anticancer potential of the synthesized compounds, a panel of six human and murine cancer cell lines representing different tissue origins was selected, including MCF-7 (human breast adenocarcinoma), MDA-MB-231 (human triple-negative breast cancer), A549 (human non-small cell lung cancer), HeLa (human cervical cancer), A375 (human melanoma), and B16-F10 (murine melanoma) (Table 2). […] DMSO was used as the vehicle control, and all experiments were performed in triplicate to ensure reproducibility.
Human breast cancer cells (MCF-7), human lung cancer cells (A549), human cervical cancer cells (HeLa), human triple-negative breast cancer cells (MDA-MB-231), and human malignant melanoma cells (A375) were cultured in DMEM. Mouse melanoma cells (B16F10) were maintained in RPMI-1640 medium. All media were supplemented with 10% fetal bovine serum and 1% penicillin-streptomycin (Life Technologies, Carlsbad, CA, USA) and maintained at 37 °C in a humidified atmosphere with 5% CO2.
The cytotoxicity of the test compounds was evaluated against MCF-7, A549, HeLa, MDA-MB-231, A375, and B16F10 using the CCK-8 assay. Cells were seeded into 96-well plates at a density of 5000 cells/well. After removing the medium, 100 μL of medium with 0.1% DMSO containing test compounds at different concentrations was added to each well and incubated at 37 °C for another 48 h. The CCK-8 solution was added and incubated for another 1 h, and then, the absorbance was detected with a microplate reader at a wavelength of 450 nm. The IC50 values were calculated by nonlinear regression analysis using GraphPad Prism 8.0.2. All the experiments were repeated at least three times.
On the technique in general: Formazan colour is commonly taken as a measure of viable cells.

Test [2] has as its system MCF-7 cells. The test can be described thus: Annexin V-FITC/PI apoptosis assay. Conditions: 48 h. Type of test: cell-based, human. As to the method:
Given that mitotic arrest induced by tubulin polymerization inhibitors is commonly associated with apoptosis, an Annexin V-FITC/propidium iodide (PI) assay was conducted to evaluate the pro-apoptotic effect of compound 3g in MCF-7 cells.
MCF-7 cells were seeded into 6-well plates and cultured overnight. After treating with compound 3g (0.1, 1, and 10 μM) for 48 h, cells were harvested and suspended in binding buffer containing annexin V-FITC (0.5 mg/mL) and PI (0.5 mg/mL). After that, samples were incubated for 20 min in the dark and analyzed with a flow cytometer.
Figure 7 Effects of compound 3g on apoptosis in MCF-7 cells. (A) Apoptosis induction by compound 3g in MCF-7 cells. Cells were treated with increasing concentrations of 3g (0.1, 1, and 10 μM) for 48 h, followed by Annexin V-FITC/PI staining and flow cytometric analysis. Cell populations were categorized as necrotic (upper left quadrant), late apoptotic (upper right), viable (lower left), and early apoptotic (lower right). (B) Quantification of apoptotic populations. Bar graphs show the percentage of cells in each apoptotic stage after treatment. Data are presented as mean ± SD from three independent experiments. Statistical significance was determined by one-way ANOVA followed by Tukey’s post hoc test. TEXT PRINTED IN THE PICTURE: (A) Control: Q1(20.37%); Q2(15.42%); Q4(59.96%); Q3(4.25%) | (A) no label printed: Q1(8.46%) (0.1 μM); Q2(23.10%) (0.1 μM); Q4(59.68%) (0.1 μM); Q3(8.75%) (0.1 μM); Q1(8.98%) (1 μM); Q2(29.15%) (1 μM); Q4(50.67%) (1 μM); Q3(11.19%) (1 μM); Q1-UL(12.21%) (10 μM); Q1-UR(40.63%) (10 μM); Q1-LL(34.55%) (10 μM); Q1-LR(12.61%) (10 μM) DOUBTS OF THE COPYIST ABOUT THIS PICTURE: The picture prints no label for the treated substance; only the concentrations 0.1 μM, 1 μM and 10 μM are printed over the plots, so they are given as conditions. / Control is untreated cells rather than a substance; it is listed because quadrant percentages are printed with that name. / The quadrant print is very small, so 3, 5, 6, 8 and 9 cannot be told apart with certainty in any of these values. / Control: Q1 20.37%, Q2 15.42%, Q4 59.96%, Q3 4.25% are best readings. / 0.1 μM: Q1 8.46%, Q2 23.10%, Q4 59.68%, Q3 8.75% are best readings. / 1 μM: Q1 8.98%, Q2 29.15%, Q4 50.67%, Q3 11.19% are best readings. / 10 μM: Q1-UL 12.21%, Q1-UR 40.63%, Q1-LL 34.55%, Q1-LR 12.61% are best readings.

In general, IC50 refers to the concentration that inhibits the measured activity by half. A high value points to weaker potency.

`COc1cc(-n2ccc3ccc(-c4ccc(C)c(C#N)c4)cc32)cc(OC)c1OC` [3g, 2-methyl-5-(1-(3,4,5-trimethoxyphenyl)-1H-indol-6-yl)benzonitrile]: the IC50 in test [1] stood at 570 ± 10 nM. In test [2] (10 μM), the apoptosis induction result is “significantly inducing apoptosis”. Further, in test [2] (0.1, 1 and 10 μM), the apoptotic cell populations entry is given as “dose-dependent increase”. Further, the viability at 0.1 µM in test [2] (Homo sapiens, MCF7, 0.1 μM, read-out: viable cells (lower left quadrant, Q4)) was determined as 59.7%. In addition, in test [2] (Homo sapiens, MCF7, 1 μM, read-out: viable cells (lower left quadrant, Q4)), the viability at 1 µM came to 50.7%. Besides, the viability at 10 µM in test [2] (Homo sapiens, MCF7, 10 μM, read-out: viable cells (lower left quadrant, Q1-LL)) came out at 34.5%.
